Tests used:
GT1 HCV [1] = test: Single ascending dose study of Compound 1-A in GT1-HCV infected patients (Part B); format: in vivo, human
Description: Subjects in Part B received a single dose of Compound 1-A in the fasting state. Patients were confined to the clinic from Day −1 to Day 6.
Part B was initiated after the safety (through Day 5) and plasma pharmacokinetic (through 24 h) data review from Cohort 3a in Part A. Available safety data (through Day 5) and pharmacokinetic data (through 24 h) was reviewed for the first cohort in Part B (Cohort 1b) before enrolling subsequent Part B cohorts. Subsequent Part B cohorts were only dosed following review of available safety and pharmacokinetic data from the respective doses in Part A as well as available safety (through Day 5) from the prior Part B cohorts.
Patients infected with HCV were treatment-naïve, non-cirrhotic GT1-infected subjects with a viral load of ≥5 log10 IU/mL.
Baseline was defined as the mean of Day −1 and Day 1 (pre-dose). […] The mean maximum HCV RNA reduction 24 hours post-dose following a single 300 mg dose was 1.7 log10 IU/mL and this compares to a −2 log 10 IU/mL reduction after 1 day of 400 mg of sofosbuvir monotherapy in GT1a HCV-infected subjects. The mean maximum HCV RNA reduction 24 hours post-dose following a single 100 mg dose was 0.8 log10 IU/mL. The mean 10 maximum HCV RNA reduction was 2.2 log10 IU/mL following a single 400 mg dose.

[2] = Head-to-head comparison of Compound 1 and Compound 1-A in dogs: plasma levels; format: in vivo; conditions: dog plasma, normalized to a dose of 25 mg/kg; 25 mg/kg
Description: A head-to-head comparison of dogs dosed with Compound 1 and Compound 1-A was conducted.

[3] = Three-part study (Parts C, D, E) of Compound 1-A: overall safety/tolerability and pharmacokinetics; format: in vivo, human; conditions: for AUC(0-inf) / AUC: human; for AUC: plasma, oral
Description: (§1) Part C was a randomized, double-blind, placebo-controlled MAD study divided into three cohorts. […] The dose escalation only proceeded following satisfactory review of the data.
HCV-infected patients were treatment-naïve with HCV RNA ≥5 log 10 IU/mL. […] Plasma drug levels were measured using LC-MS/MS.

[4] = tested on: replicons containing the NS5B sequences from HCV laboratory reference strains (GT1a, 1b, 2a, 3a, 4a and 5a); test: Replicons containing NS5B sequences from laboratory reference strains; format: cell-based; conditions: laboratory strains of HCV Genotypes 1-5
[5] = Plasma profiles of Compound 1 and metabolite 1-7 after single oral doses of Compound 1-A, cynomolgus monkeys; format: in vivo; conditions: monkey
[6] = tested on: replicons containing the NS5B sequences from HCV patient plasma samples (GT1a, 1b, 2a, 2b, 3a-1, 3a-2, 4a and 4d); test: Replicons containing NS5B sequences from HCV patient plasma samples (clinical isolates); format: cell-based
[7] = Plasma profiles of Compound 1 and metabolite 1-7 after single oral dose of Compound 1-A, Sprague-Dawley rats; format: in vivo; conditions: rat, single oral dose of Compound 1-A 500 mg/kg (0.5% CMC, 0.5% Tween 80 in water)
[8] = Solubility in biorelevant test medias (water, SGF, FaSSIF, FeSSIF); conditions: for Appearance: solubility test; for Descriptive term: solubility
GT1 HCV [9] = test: Multiple dose study, 7 days QD, non-cirrhotic GT1 HCV-infected patients (Part C); format: in vivo, human
Description: (§2) Doses were administered as the Compound 1-A salt base. The free base Compound 1 equivalent is often given in parenthesis.
as §1
(§3) HCV-infected patients were treatment-naïve with HCV RNA ≥5 log 10 IU/mL. HCV RNA was quantified using COBAS® AmpliPrep TaqMAN® v2.0 with LLQ of 15 IU/mL. Plasma drug levels were measured using LC-MS/MS. […] Mean ages of enrolled subjects were 44, 39, and 56 years in the non-cirrhotic GT1b 600 mg dose cohort, non-cirrhotic GT3 cohort, and the cirrhotic cohort, respectively.

[10] = Single ascending dose study of Compound 1-A in healthy volunteers (Part A); format: in vivo, human; conditions: healthy subjects, single dose of Compound 1-A 400 mg, median (range)
Description: Compound 1-A was tested in a single ascending dose (SAD) study to measure its safety, tolerability, and pharmacokinetic in healthy subjects (Part A). Part A was a randomized, double-blind, placebo-controlled SAD study. Healthy subjects in Part A received a single dose of Compound 1-A or placebo in the fasting state. Subjects were confined to the clinic from Day −1 to Day 6.
Dosing in each cohort was staggered such that 2 subjects (1 active:1 placebo) were evaluated for 48 hours after dosing before the remainder of the cohort was dosed. Each cohort received Compound 1-A in ascending order. Dosing of sequential cohorts occurred based on review of available safety data (through Day 5) and plasma pharmacokinetic data (through 24 h) of the prior cohort.
As pharmacokinetic and safety data emerged from prior cohorts, doses evaluated in Cohorts 3a-4a were adjusted by increments no more than 100 mg.
Healthy volunteers in the Part A portion of the study were male and female subjects between the ages of 18 and 65. Active and placebo recipients were pooled within each Part A cohort to preserve the study blind.

GT1, GT2, or GT3 HCV = test: 600 mg QD for 7 days in Child-Pugh A cirrhotic patients with GT1, GT2 or GT3 HCV (Part E); format: in vivo, human
Description: Doses were administered as the Compound 1-A salt base. The free base Compound 1 equivalent is often given in parenthesis. […]
as §3

GT3 HCV = test: 600 mg QD for 7 days in non-cirrhotic GT3 HCV-infected patients (Part D); format: in vivo, human; conditions: 600 mg QD, Part D
Description: as §2, §1, §3

HCV = conditions: cited from earlier work
[11] = single oral dose of Compound 1-A 30 mg/kg (powder in capsules)
[12] = single oral dose of Compound 1-A 100 mg/kg (powder in capsules)
[13] = single oral dose of Compound 1-A 300 mg/kg (powder in capsules)

CNc1nc(N)nc2c1ncn2[C@@H]1O[C@H](CO[P@@](=O)(N[C@@H](C)C(=O)OC(C)C)Oc2ccccc2)[C@@H](O)[C@@]1(C)F [Compound 1, isopropyl((S)-(((2R,3R,4R,5R)-5-(2-amino-6-(methylamino)-9H-purin-9-yl)-4-fluoro-3-hydroxy-4-methyltetrahydrofuran-2-yl)methoxy)(phenoxy)phosphoryl)-L-alaninate]
time within which the parent is metabolized (GT1 HCV [1]; single oral dose of Compound 1-A, plasma): ≤ 8 h | Mean Dose-normalized AUC(0-4 hr) for Compound 1 [2]: 0.2 µM·h | estimated fraction absorbed ([3]; based on urine recovery): ~50% | AUC(0-inf) ([3]; in vivo, 150 mg/d, AUC Day 1 (AUCinf for Compound 1), Part C, 150 mg/d (n=6), Day 1): 492 ± 141 ng·h/mL | AUC(0-inf) ([3]; in vivo, 150 mg/d, AUC SS (AUCinf for Compound 1), Part C, 150 mg/d (n=6), steady state): 475 ± 301 ng·h/mL | AUC(0-inf) ([3]; in vivo, 300 mg/d, AUC Day 1 (AUCinf for Compound 1), Part C, 300 mg/d (n=6), Day 1): 1950 ± 1120 ng·h/mL | AUC(0-inf) ([3]; in vivo, 300 mg/d, AUC SS (AUCinf for Compound 1), Part C, 300 mg/d (n=6), steady state): 1510 ± 976 ng·h/mL | AUC(0-inf) ([3]; in vivo, 600 mg/d, AUC Day 1 (AUCinf for Compound 1), Part C, 600 mg/d (n=6), Day 1): 3340 ± 1500 ng·h/mL | AUC(0-inf) ([3]; in vivo, 600 mg/d, AUC Day 1 (AUCinf for Compound 1), Part D, 600 mg/d (n=6), Day 1): 3330 ± 1240 ng·h/mL | AUC(0-inf) ([3]; in vivo, 600 mg/d, AUC Day 1 (AUCinf for Compound 1), Part E, 600 mg/d (n=6), Day 1): 3320 ± 1470 ng·h/mL | AUC(0-inf) ([3]; in vivo, 600 mg/d, AUC SS (AUCinf for Compound 1), Part C, 600 mg/d (n=6), steady state): 4040 ± 2090 ng·h/mL | AUC(0-inf) ([3]; in vivo, 600 mg/d, AUC SS (AUCinf for Compound 1), Part D, 600 mg/d (n=6), steady state): 3750 ± 2280 ng·h/mL | AUC(0-inf) ([3]; in vivo, 600 mg/d, AUC SS (AUCinf for Compound 1), Part E, 600 mg/d (n=6), steady state): 3530 ± 1600 ng·h/mL | EC50 values, times lower than (more potent than) sofosbuvir [4]: 6-11 times | AUC0-last [5, 11]: 176 ng·h/mL | Cmax [5, 11]: 63.5 ng/mL | Tmax [5, 11]: 0.5 to 2 h | AUC0-last [5, 12]: 1100 ng·h/mL | Cmax [5, 12]: 783 ng/mL | Tmax [5, 12]: 1 to 2 h | AUC0-last [5, 13]: 1600 ng·h/mL | Cmax [5, 13]: 501 ng/mL | EC95 ([6]; HCV GT1): approximately 21.7 ng/mL equivalents of metabolite 1-7 | EC95 ([6]; HCV GT2): ~11.6 ng/mL equivalents of metabolite 1-7 | EC95 ([6]; HCV GT3): ~17.5 ng/mL equivalents of metabolite 1-7 | EC95 values, times lower than sofosbuvir ([6]; clinical isolates of all HCV genotypes tested): 7-33 times | EC95 ([6]; clinical isolates, all tested genotypes): < 80 nM | AUC0-last [7]: 78.2 ng·h/mL | Cmax [7]: 60.8 ng/mL | Tmax [7]: 0.25 h | Appearance ([8]; FaSSIF): Turbid | Appearance ([8]; FeSSIF): Turbid | Appearance ([8]; SGF): Clear Solution | Appearance ([8]; Water): Clear Solution | Descriptive term ([8]; FaSSIF): Slightly Soluble | Descriptive term ([8]; FeSSIF): Slightly Soluble | Descriptive term ([8]; SGF): Sparingly | Descriptive term ([8]; Water): Slightly Soluble | half-life (GT1 HCV [9]; daily dosing for 7 days, Part C): short half-life

C[C@@]1(F)[C@H](O)[C@@H](CO)O[C@H]1n1cnc2c(=O)[nH]c(N)nc21 [metabolite 1-7, 2-amino-9-((2R,3R,4R,5R)-3-fluoro-4-hydroxy-5-(hydroxymethyl)-3-methyltetrahydrofuran-2-yl)-1,9-dihydro-6H-purin-6-one]
Tmax (GT1 HCV [1]; GT1-HCV infected patients, Compound 1-A 300 mg (second 300 mg line), median (range)): 4.0 (3.0-6.0) h | Tmax [10]: 6.0 (4.0-8.0) h | T1/2 SS ([3]; Part E, 600 mg/d (n=6), steady state): 24.4 ± 9.81 h | AUC ([3]; 150 mg/d, AUC Day 1 (AUC, for Metabolite 1-7), Part C, 150 mg/d (n=6), Day 1): 800 ± 213 ng·h/mL | AUC ([3]; 150 mg/d, AUC SS (AUC, for Metabolite 1-7), Part C, 150 mg/d (n=6), steady state): 962 ± 409 ng·h/mL | AUC ([3]; 300 mg/d, AUC Day 1 (AUC, for Metabolite 1-7), Part C, 300 mg/d (n=6), Day 1): 1410 ± 220 ng·h/mL | AUC ([3]; 300 mg/d, AUC SS (AUC, for Metabolite 1-7), Part C, 300 mg/d (n=6), steady state): 1830 ± 453 ng·h/mL | food effect on total and trough exposure ([3]; in vivo): No food effect | subjects achieving HCV RNA below the lower limit of quantitation (GT1, GT2, or GT3 HCV; 600 mg QD, Part E): 17% | day on which steady state of concentrations was reached (GT1, GT2, or GT3 HCV; subjects with cirrhosis): 5 days | AUC0-last [5, 11]: 1620 ng·h/mL | Cmax [5, 11]: 42.5 ng/mL | T1/2 [5, 11]: 11.5 h | Tmax [5, 11]: 12 to 24 h | AUC0-last [5, 12]: 3030 ng·h/mL | Cmax [5, 12]: 131 ng/mL | T1/2 [5, 12]: 15.0 h | Tmax [5, 12]: 4 h | AUC0-last [5, 13]: 3660 ng·h/mL | Cmax [5, 13]: 93.6 ng/mL | T1/2 [5, 13]: 18.8 h | Tmax [5, 13]: 4 to 24 h | subjects achieving HCV RNA below the lower limit of quantitation (GT3 HCV): 17% | AUC0-last [7]: 9640 ng·h/mL | Cmax [7]: 541 ng/mL | T1/2 [7]: 15.3 h | Tmax [7]: 6 to 8 h | subjects achieving HCV RNA <LOQ (GT1 HCV [9]; 600 mg QD, non-cirrhotic GT1b, LOQ=15 IU/mL): 50% | time of peak formation after dosing (GT1 HCV [9]; Part C): approximately 6 hours

CC(C)OC(=O)[C@H](C)N[P@](=O)(OC[C@H]1O[C@@H](n2ccc(=O)[nH]c2=O)[C@](C)(F)[C@@H]1O)Oc1ccccc1 [sofosbuvir]
EC95 ([6]; GT1, GT3, and GT4 clinical isolates, nucleoside equivalent): greater than 100 ng/mL | HCV RNA reduction (HCV; after 1 day of 400 mg monotherapy, GT1a HCV-infected subjects): −2 log 10 IU/mL | steady-state trough concentration (HCV; similar dosage form (400 mg QD)): approximately 100 ng/mL

Source: US20260091050A1, “ADVANTAGEOUS ANTI-HCV COMBINATION THERAPY” (Atea Pharmaceuticals, Inc., priority 2021, published 2026)
